The source of these data is patent publication US20240101570A1 (AMGEN INC., priority 2020, published 2024).

Each structure is given as a SMILES string. Bounds are passed on as bounds.

The subject of experiment [1] is HCT116 WT cells. Nature of the experiment: HCT116 WT cell proliferation / viability (CellTiter-Glo, 6 days). The experiment is classed as cell-based. Particulars: Homo sapiens, HCT-116, 144 h, HCT116 WT cells, 6 days, CellTiter-Glo; read-out: HCT-116 WT IC50. Put shortly: (§1)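 Viability read by CellTiter-Glo after 6-day compound exposure of MTAP-null and wild-type HCT116 cells grown in RPMI 1640 with 10% FBS. Dosing used 1:3 steps from 1 or 10 μM (8-9 points) or 1:2 steps from 10 or 50 μM (22 points); IC50 taken where fitted curve crosses 50% of control.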

For experiment [2], the system named is HCT116 MTAP null cells. Nature of the experiment: HCT116 MTAP null cell proliferation / viability (CellTiter-Glo, 6 days). The experiment is classed as cell-based. Particulars: HCT116-MTAP null, 144 h, HCT116 MTAP null cells, 6 days, CellTiter-Glo; read-out: HCT-116 MTAP null IC50. Put shortly:
as §1

For the molecule `C[C@H](c1ccc(F)cn1)N(C)C(=O)c1cc2c(cc1Cl)nc(N)c1cnn(C)c12` [Example 593, 4-amino-7-chloro-N-((1R)-1-(5-fluoro-2-pyridinyl)ethyl)-N,1-dimethyl-1H-pyrazolo[4,3-c]quinoline-8-carboxamide], the IC50 in experiment [1] came to 908 nM; in experiment [2] it was 12 nM.

On to `C[C@H](c1ncccn1)N(Cc1ccc(C#N)cn1)C(=O)c1cc2c3c(c(N)nc2cn1)COC3` [Example 606, (R)-4-amino-N-((5-cyanopyridin-2-yl)methyl)-N-(1-(pyrimidin-2-yl)ethyl)-1,3-dihydrofuro[3,4-c][1,7]naphthyridine-8-carboxamide], for which the figures for the IC50 in experiment [1] and in experiment [2] were 3700 nM and 263 nM, respectively.

As for `CC(C)CN(Cc1ccc(C(F)(F)F)cn1)C(=O)c1cnc2nc(N)c3c(c2c1)CCC3` [Example 607, 6-amino-N-isobutyl-N-((5-(trifluoromethyl)pyridin-2-yl)methyl)-8,9-dihydro-7H-cyclopenta[c][1,8]naphthyridine-2-carboxamide], the results for the IC50 in experiment [1] and in experiment [2] were 1370 nM and 154 nM, respectively.

For the molecule `C[C@H](c1ncccn1)N(Cc1ccc(C(F)(F)F)cn1)C(=O)c1ccc2nc(N)c3c(c2c1)CCC3` [Example 610, 4-amino-N-((1R)-1-(2-pyrimidinyl)ethyl)-N-((5-(trifluoromethyl)-2-pyridinyl)methyl)-2,3-dihydro-1H-cyclopenta[c]quinoline-8-carboxamide], the IC50 was determined as 135 nM in experiment [1] and 6 nM in experiment [2].

Turning to `CC(C)CN(Cc1ccc(C(F)(F)F)cn1)C(=O)c1ccc2nc(N)c3c(c2c1)CCC3` [Example 611, 4-amino-N-(2-methylpropyl)-N-((5-(trifluoromethyl)-2-pyridinyl)methyl)-2,3-dihydro-1H-cyclopenta[c]quinoline-8-carboxamide], the IC50 turned out to be 474 nM in experiment [1] and 84 nM in experiment [2].

For `CC(C)CN(Cc1ccc(C(F)(F)F)cn1)C(=O)c1cnc2nc(N)c3c(c2c1)COC3` [Example 612, 4-amino-N-(2-methylpropyl)-N-((5-(trifluoromethyl)-2-pyridinyl)methyl)-1,3-dihydrofuro[3,4-c][1,8]naphthyridine-8-carboxamide], the IC50 is 3060 nM in experiment [1] and 176 nM in experiment [2].

For `CC(C)CN(Cc1ccc(C(F)(F)F)cn1)C(=O)c1ccc2nc(N)c3c(c2c1)COC3` [Example 613, 4-amino-N-(2-methylpropyl)-N-((5-(trifluoromethyl)-2-pyridinyl)methyl)-1,3-dihydrofuro[3,4-c]quinoline-8-carboxamide], the IC50 in experiment [1] was found to be 761 nM; in experiment [2] it was 23 nM.

With `C[C@H](c1ncccn1)N(Cc1ccc(C(F)(F)F)cn1)C(=O)c1cnc2nc(N)c3c(c2c1)COC3` [Example 614, 4-amino-N-((1R)-1-(2-pyrimidinyl)ethyl)-N-((5-(trifluoromethyl)-2-pyridinyl)methyl)-1,3-dihydrofuro[3,4-c][1,8]naphthyridine-8-carboxamide], the IC50 in experiment [1] came out at 255 nM; in experiment [2] it was 42 nM.

Consider `C[C@H](c1ncccn1)N(Cc1ccc(C#N)cn1)C(=O)c1ccc2nc(N)c3c(c2c1)CCC3` [Example 615, 4-amino-N-((5-cyano-2-pyridinyl)methyl)-N-((1R)-1-(2-pyrimidinyl)ethyl)-2,3-dihydro-1H-cyclopenta[c]quinoline-8-carboxamide], for which the figures for the IC50 in experiment [1] and in experiment [2] were 271 nM and 19 nM, respectively.

Consider `Cc1noc2c1c(N)nc1ccc(C(=O)N(Cc3ccc(C(F)(F)F)cn3)CC(C)C)cc12` [Example 617, 4-amino-3-methyl-N-(2-methylpropyl)-N-((5-(trifluoromethyl)-2-pyridinyl)methyl)[1,2]oxazolo[4,5-c]quinoline-8-carboxamide], for which the results for the IC50 in experiment [1] and in experiment [2] were greater than 10000 nM and 245 nM, respectively.

Regarding `CC(C)CN(Cc1ccc(C(F)(F)F)cn1)C(=O)c1cc2c3c(c(N)nc2cn1)COC3` [Example 620, 4-amino-N-(2-methylpropyl)-N-((5-(trifluoromethyl)-2-pyridinyl)methyl)-1,3-dihydrofuro[3,4-c][1,7]naphthyridine-8-carboxamide], the IC50 in experiment [1] turned out to be 3560 nM; in experiment [2], 77 nM.

Consider `C[C@H](c1ncccn1)N(Cc1ccc(C(F)(F)F)cn1)C(=O)c1cc2c3c(c(N)nc2cn1)COC3` [Example 621, 4-amino-N-((1R)-1-(2-pyrimidinyl)ethyl)-N-((5-(trifluoromethyl)-2-pyridinyl)methyl)-1,3-dihydrofuro[3,4-c][1,7]naphthyridine-8-carboxamide], for which the figures for the IC50 in experiment [1] and in experiment [2] were 1230 nM and 108 nM, respectively.

As to `C[C@H](c1ncccn1)N(Cc1ccc(Cl)cn1)C(=O)c1ccc2nc(N)c3c(c2c1)CCC3` [Example 622, 4-amino-N-((5-chloro-2-pyridinyl)methyl)-N-((1R)-1-(2-pyrimidinyl)ethyl)-2,3-dihydro-1H-cyclopenta[c]quinoline-8-carboxamide], the IC50 in experiment [1] was found to be 156 nM; in experiment [2], 11 nM.

`C[C@H](c1ncccn1)N(Cc1ccc(C(F)F)cn1)C(=O)c1ccc2nc(N)c3c(c2c1)CCC3` [Example 623, 4-amino-N-((5-(difluoromethyl)-2-pyridinyl)methyl)-N-((1R)-1-(2-pyrimidinyl)ethyl)-2,3-dihydro-1H-cyclopenta[c]quinoline-8-carboxamide]: the IC50 in experiment [1] was determined as 148 nM; in experiment [2] it was 15 nM.

Take `C[C@H](c1ncccc1F)N(Cc1ccc(Br)nn1)C(=O)c1ccc2nc(N)c3c(c2c1)CCC3` [Example 624, 4-amino-N-((6-bromo-3-pyridazinyl)methyl)-N-((1R)-1-(3-fluoro-2-pyridinyl)ethyl)-2,3-dihydro-1H-cyclopenta[c]quinoline-8-carboxamide]: the IC50 in experiment [1] is 189 nM; in experiment [2], 21 nM.

In the case of `C[C@H](c1ncccn1)N(Cc1ccc(C(F)F)cn1)C(=O)c1cnc2nc(N)c3c(c2c1)CCC3` [Example 625, 6-amino-N-((5-(difluoromethyl)-2-pyridinyl)methyl)-N-((1R)-1-(2-pyrimidinyl)ethyl)-8,9-dihydro-7H-cyclopenta[c][1,8]naphthyridine-2-carboxamide], the IC50 was 1590 nM in experiment [1] and 130 nM in experiment [2].

As to `C[C@H](c1ncccn1)N(Cc1ccc(C(F)(F)F)cn1)C(=O)c1cnc2nc(N)c3c(c2c1)CCC3` [Example 626, 6-amino-N-((1R)-1-(2-pyrimidinyl)ethyl)-N-((5-(trifluoromethyl)-2-pyridinyl)methyl)-8,9-dihydro-7H-cyclopenta[c][1,8]naphthyridine-2-carboxamide], the IC50 in experiment [1] was found to be 444 nM; in experiment [2], 43 nM.

On to `C[C@H](c1ncccn1)N(Cc1ccc(Cl)cn1)C(=O)c1cnc2nc(N)c3c(c2c1)CCC3` [Example 627, 6-amino-N-((5-chloro-2-pyridinyl)methyl)-N-((1R)-1-(2-pyrimidinyl)ethyl)-8,9-dihydro-7H-cyclopenta[c][1,8]naphthyridine-2-carboxamide], for which the IC50 in experiment [1] is 583 nM; in experiment [2], 45 nM.

As for `C[C@H](c1ncccc1F)N(Cc1ccc(C(F)(F)F)nn1)C(=O)c1cnc2nc(N)c3c(c2c1)CCC3` [Example 628, 6-amino-N-((1R)-1-(3-fluoro-2-pyridinyl)ethyl)-N-((6-(trifluoromethyl)-3-pyridazinyl)methyl)-8,9-dihydro-7H-cyclopenta[c][1,8]naphthyridine-2-carboxamide], the results for the IC50 in experiment [1] and in experiment [2] were 1190 nM and 119 nM, respectively.

Regarding `C[C@H](c1ncccn1)N(Cc1ccc(C(F)(F)F)cn1)C(=O)c1ccc2nc(N)c3ccccc3c2c1` [Example 629, 6-amino-N-((1R)-1-(2-pyrimidinyl)ethyl)-N-((5-(trifluoromethyl)-2-pyridinyl)methyl)-2-phenanthridinecarboxamide], the IC50 in experiment [1] turned out to be 398 nM; in experiment [2], 16 nM.

On to `C[C@H](c1ncccn1)N(Cc1ccc(C#N)cn1)C(=O)c1ccc2nc(N)c3ccccc3c2c1` [Example 630, 6-amino-N-((5-cyano-2-pyridinyl)methyl)-N-((1R)-1-(2-pyrimidinyl)ethyl)-2-phenanthridinecarboxamide], for which the IC50 in experiment [1] was 408 nM; in experiment [2] it was 19 nM.

`Nc1nc2ccc(C(=O)N(Cc3ccc(C(F)(F)F)cn3)Cc3ncccn3)cc2c2cnccc12` [Example 631, 5-amino-N-(2-pyrimidinylmethyl)-N-((5-(trifluoromethyl)-2-pyridinyl)methyl)benzo[c][2,6]naphthyridine-9-carboxamide]: the values for the IC50 in experiment [1] and in experiment [2] were 215 nM and 10 nM, respectively.

Regarding `CC(C)CN(Cc1ccc(C(F)(F)F)cn1)C(=O)c1ccc2nc(N)c3ccncc3c2c1` [Example 632, 5-amino-N-(2-methylpropyl)-N-((5-(trifluoromethyl)-2-pyridinyl)methyl)benzo[c][2,6]naphthyridine-9-carboxamide], the 50% inhibitory concentration (IC50) in experiment [1] stood at 231 nM; in experiment [2], 11 nM.

As to `C[C@H](c1ncccn1)N(Cc1ccc(C(F)(F)F)cn1)C(=O)c1ccc2nc(N)c3ccncc3c2c1` [Example 633, 5-amino-N-((1R)-1-(2-pyrimidinyl)ethyl)-N-((5-(trifluoromethyl)-2-pyridinyl)methyl)benzo[c][2,6]naphthyridine-9-carboxamide], the IC50 was 71 nM in experiment [1] and 13 nM in experiment [2].

In the case of `Nc1nc2ccc(C(=O)N(Cc3ccc(C(F)(F)F)cn3)Cc3ncccc3F)cc2c2ccsc12` [Example 635, 4-amino-N-((3-fluoro-2-pyridinyl)methyl)-N-((5-(trifluoromethyl)-2-pyridinyl)methyl)thieno[2,3-c]quinoline-8-carboxamide], the results for the IC50 in experiment [1] and in experiment [2] were 1210 nM and 73 nM, respectively.
